# Measured values as given in patent publication US9453019B2, “Linked purine pterin HPPK inhibitors useful as antibacterial agents” (THE UNITED STATES OF AMERICA, AS REPRESENTED BY THE …, priority 2010, dated 2016).
# What was measured:
# HPPK = HPPK (Escherichia coli, UniProt P26281); assay: Fluorometric titration binding study with HPPK; conditions: room temperature; 100 mM Tris-HCl, pH 8.3; fluorescence titration, nonlinear least-squares analysis
# Description: Binding studies were carried out at room temperature. Protein (HPPK) and ligand stock solutions were made in 100 mM Tris-HCl, pH 8.3, and their concentrations were determined spectrophotometrically using the following extinction coefficients: 21600 M^−1 cm^−1 at 280 nm for HPPK, 7000 M^−1 cm^−1 at 366 nm for the pteridone bisubstrate inhibitors such as compound 13, and 7124 M^−1 cm^−1 at 380 nm for the tetrahydropteridine bisubstrate inhibitors such as 28. A 3-mL dilute inhibitor solution in a fluorometric cuvette was titrated with the protein stock solution. Fluorescence was measured on a Horiba Jobin Yvon FluoroMax-4 fluorometer. The excitation wavelength and slit were 364-380 and 2-3 nm, respectively, and the emission wavelength and slit were 450-482 and 2-5 nm, respectively. […] For these HPPK preparations, a control experiment, in which a 3-mL buffer solution was titrated with the protein solution, was performed. The control data was subtracted from the titration data. The corrected titration data was then analyzed by nonlinear least-squares regression using the software Origin and the equation:
# [formula] where Fobs is the observed fluorescence, εf and εb are the fluorescence coefficients of the ligand in the free and protein-bound states, respectively, Lt is the total concentration of the ligand, and Et is the total concentration of HPPK. […]
# [1] = Stability of the compounds (stated in words, no method given); type: physicochemical; conditions: qualitative statement; no conditions given
# Sequence of HPPK (P26281 whole entry): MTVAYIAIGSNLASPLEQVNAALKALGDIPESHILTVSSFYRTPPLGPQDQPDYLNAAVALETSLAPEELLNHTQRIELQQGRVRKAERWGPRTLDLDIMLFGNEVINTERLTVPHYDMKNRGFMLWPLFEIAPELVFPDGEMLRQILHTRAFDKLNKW
SMILES,Kd (HPPK) [nM],Stability of compound [1]
"CC1(C)Nc2nc(N)[nH]c(=O)c2N=C1C(=O)NCCN1CCC(SC[C@H]2O[C@@H](n3cnc4c(N)ncnc43)C(O)C2O)CC1 (stereo in doubt) [Compound 28, 2-Amino-7,7-dimethyl-4-oxo-3,4,7,8-tetrahydro-pteridine-6-carboxylic acid (2-{4-[5-(6-amino-purin-9-yl)-3,4-dihydroxy-tetrahydro-furan-2-ylmethylsulfanyl]-piperidin-1-yl}-ethyl)-amide]",330,stable
"Nc1nc2ncc(CNCCN3CCC(SC[C@H]4O[C@@H](n5cnc6c(N)ncnc65)C(O)C4O)CC3)nc2c(=O)[nH]1 (stereo in doubt) [Compound 13, 2-Amino-6-[(2-{4-[5-(6-amino-purin-9-yl)-3,4-dihydroxy-tetrahydro-furan-2-ylmethylsulfanyl]-piperidin-1-yl}-ethylamino)-methyl]-3H-pteridin-4-one]",590,stable
